Measured values published in ChEMBL document CHEMBL4311934, “Exploration of [2 + 2 + 2] cyclotrimerisation methodology to prepare tetrahydroisoquinoline-based compounds with potential aldo-keto reductase 1C3 target affinity” (Medchemcomm, 2019).

Key:
[1] = molecular target: T1, Aldo-keto reductase family 1 member C3 (Homo sapiens, UniProt P42330); assay: Inhibition of N-terminal GST-tagged recombinant human AKR1C3 expressed in Escherichia coli BL21 (DE) Codon Plus RP cells assessed as reduction in NADPH production using S-tetralol as substrate in presence of NADP+ by fluorimetry assay
T1 sequence (P42330 whole entry): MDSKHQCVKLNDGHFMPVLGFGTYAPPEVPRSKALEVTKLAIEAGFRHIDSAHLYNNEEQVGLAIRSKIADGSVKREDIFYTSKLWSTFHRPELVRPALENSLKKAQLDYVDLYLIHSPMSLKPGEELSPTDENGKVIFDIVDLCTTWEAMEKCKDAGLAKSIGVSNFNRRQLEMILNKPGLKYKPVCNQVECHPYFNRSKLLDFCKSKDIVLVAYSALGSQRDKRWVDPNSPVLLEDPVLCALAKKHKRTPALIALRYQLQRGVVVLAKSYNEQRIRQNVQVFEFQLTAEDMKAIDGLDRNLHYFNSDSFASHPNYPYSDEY

[2] = molecular target: T2, Aldo-keto reductase family 1 member C2 (Homo sapiens) (UniProt P52895); assay: Inhibition of N-terminal GST-tagged recombinant human AKR1C2 expressed in Escherichia coli BL21 (DE) Codon Plus RP cells assessed as reduction in NADPH production 50 uM using S-tetralol as substrate in presence of NADP+ by fluorimetry assay relative to control
T2 sequence (whole entry): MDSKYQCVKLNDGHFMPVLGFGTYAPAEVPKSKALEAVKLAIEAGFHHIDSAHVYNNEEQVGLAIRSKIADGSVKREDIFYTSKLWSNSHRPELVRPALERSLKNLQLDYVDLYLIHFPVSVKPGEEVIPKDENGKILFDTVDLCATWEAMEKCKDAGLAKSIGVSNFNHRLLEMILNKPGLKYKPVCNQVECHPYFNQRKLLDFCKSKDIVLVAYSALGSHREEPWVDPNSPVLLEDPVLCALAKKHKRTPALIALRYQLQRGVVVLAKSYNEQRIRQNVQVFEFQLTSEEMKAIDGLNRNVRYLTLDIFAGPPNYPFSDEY

[3] = molecular target: T3, Aldo-keto reductase family 1 member C2 (Homo sapiens, UniProt P52895); assay: Inhibition of N-terminal GST-tagged recombinant human AKR1C2 expressed in Escherichia coli BL21 (DE) Codon Plus RP cells assessed as reduction in NADPH production using S-tetralol as substrate in presence of NADP+ by fluorimetry assay
T3 sequence (P52895 whole entry): T2 sequence (whole entry)

[4] = molecular target: T4, Aldo-keto reductase family 1 member C3 (Homo sapiens) (UniProt P42330); assay: Inhibition of N-terminal GST-tagged recombinant human AKR1C3 expressed in Escherichia coli BL21 (DE) Codon Plus RP cells assessed as reduction in NADPH production at 50 uM using S-tetralol as substrate in presence of NADP+ by fluorimetry assay relative to control
T4 sequence (whole entry): T1 sequence (P42330 whole entry)

Homo sapiens = species: Homo sapiens; assay: Selectivity index, ratio of IC50 for N-terminal GST-tagged recombinant human AKR1C2 expressed in Escherichia coli BL21 (DE) Codon Plus RP cells to IC50 for N-terminal GST-tagged recombinant human AKR1C3 expressed in Escherichia coli BL21 (DE) Codon Plus RP cells

inhibition [2]	inhibition [4]	SMILES	IC50 [1]	IC50 [3]	Ratio IC50 (Homo sapiens)
26.9%	25%	O=C1CCC2Cc3cc(CO)c(CO)cc3CN12 (stereo unspecified)	> 50 µM	> 50 µM	
		O=C(O)c1cc2c(cc1C(=O)O)CN1C(=O)CCC1C2 (stereo unspecified)	23.1 µM	27.3 µM	
		CCOC(=O)c1cc2c(cc1C(=O)OCC)CN1C(=O)CCC1C2 (stereo unspecified)	11.7 µM	96.2 µM	8
		COc1ccc2cc3[n+](cc2c1OC)CCc1cc2c(cc1-3)OCO2 [BERBERINE]	5.9 µM	6.71 µM	
